Like-named read-outs stand apart in the source and are kept apart here.
Tests used:
[1] = target: NfGlck; test: coupled glucokinase assay, absorbance at […] nm; format: biochemical, Naegleria fowleri
[2] = tested on: NfGlck; test: coupled glucokinase assay, absorbance at […] nm; format: biochemical, Naegleria fowleri; conditions: read-out: apparent Km, MgCl2
[3] = target: T1, TbHK1 (Trypanosoma brucei, UniProt Q38C42); conditions: read-out: TbHK1 IC50; inhibitor
T1 sequence (Q38C42 1-471): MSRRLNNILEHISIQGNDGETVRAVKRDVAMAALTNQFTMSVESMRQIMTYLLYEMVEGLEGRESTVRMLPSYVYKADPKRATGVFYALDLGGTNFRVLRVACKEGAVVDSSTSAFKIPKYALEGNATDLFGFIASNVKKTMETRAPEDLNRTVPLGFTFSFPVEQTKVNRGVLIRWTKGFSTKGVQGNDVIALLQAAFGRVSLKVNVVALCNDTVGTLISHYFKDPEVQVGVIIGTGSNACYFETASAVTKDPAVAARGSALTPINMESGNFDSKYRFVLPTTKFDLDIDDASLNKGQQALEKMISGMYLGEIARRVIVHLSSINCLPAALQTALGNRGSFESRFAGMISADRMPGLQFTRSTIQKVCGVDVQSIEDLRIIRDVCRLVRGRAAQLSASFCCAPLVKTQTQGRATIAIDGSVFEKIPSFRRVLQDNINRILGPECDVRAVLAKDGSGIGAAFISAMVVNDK

[4] = target: T2, HsGlck (Homo sapiens, UniProt P35557); test: biochemical
T2 sequence (P35557 1-465): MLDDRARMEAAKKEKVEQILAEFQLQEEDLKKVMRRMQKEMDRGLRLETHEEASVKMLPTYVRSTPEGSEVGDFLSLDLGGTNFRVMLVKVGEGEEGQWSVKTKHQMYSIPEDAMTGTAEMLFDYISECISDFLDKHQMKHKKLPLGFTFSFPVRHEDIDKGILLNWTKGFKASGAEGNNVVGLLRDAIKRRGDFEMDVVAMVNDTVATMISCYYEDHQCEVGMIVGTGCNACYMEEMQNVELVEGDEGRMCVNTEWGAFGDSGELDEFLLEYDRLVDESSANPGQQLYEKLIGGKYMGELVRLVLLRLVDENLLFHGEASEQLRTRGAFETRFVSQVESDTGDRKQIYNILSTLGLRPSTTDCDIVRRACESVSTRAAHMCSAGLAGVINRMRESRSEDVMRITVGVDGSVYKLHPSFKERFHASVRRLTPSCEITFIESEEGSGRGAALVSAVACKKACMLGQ

[5] = target: NfGlck; test: coupled glucokinase assay, absorbance at […] nm; format: biochemical, Naegleria fowleri; conditions: pH 7.4, MgCl2
[6] = target: T3, PfHK (Plasmodium falciparum, UniProt Q02155); test: enzyme inhibition assay; format: biochemical
T3 sequence (Q02155 1-493): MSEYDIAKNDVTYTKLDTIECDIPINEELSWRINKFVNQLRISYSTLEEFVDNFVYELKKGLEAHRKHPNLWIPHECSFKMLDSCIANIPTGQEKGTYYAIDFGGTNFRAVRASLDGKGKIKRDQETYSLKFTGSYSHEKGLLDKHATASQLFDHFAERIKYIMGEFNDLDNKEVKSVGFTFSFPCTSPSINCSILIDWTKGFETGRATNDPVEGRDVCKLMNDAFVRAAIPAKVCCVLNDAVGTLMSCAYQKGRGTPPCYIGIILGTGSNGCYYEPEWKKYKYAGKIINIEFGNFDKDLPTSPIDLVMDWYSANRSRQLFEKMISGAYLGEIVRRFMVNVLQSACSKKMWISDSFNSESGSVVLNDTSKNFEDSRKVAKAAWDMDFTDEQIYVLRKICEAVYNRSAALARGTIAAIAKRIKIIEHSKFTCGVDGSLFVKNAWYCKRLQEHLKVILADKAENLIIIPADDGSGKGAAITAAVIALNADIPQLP

[7] = target: T1, TbHK1; test: enzyme inhibition assay; format: biochemical
[8] = target: T2, HsGlck; test: enzyme inhibition assay; format: biochemical
[9] = mixed inhibitor with respect to ATP

SMILES	IC50 [7] [µM]	IC50 [8] [µM]	IC50 [5] [µM]	further results
Nc1ncnc2c1ncn2[C@@H]1O[C@H](COP(=O)(O)OP(=O)(O)O)[C@@H](O)[C@H]1O [ADP]				Ki [1]: 116 ± 7 µM
Nc1ncnc2c1ncn2[C@@H]1O[C@H](COP(=O)(O)OP(=O)(O)OP(=O)(O)O)[C@@H](O)[C@H]1O [ATP]				Km ([2]; co-substrate glucose): 142 ± 9.9 µM
CC(C)(C)c1ccc(C(=O)Nc2cc(Cl)c(-c3ccc(C(F)(F)F)cc3)cc2C(=O)O)cc1 [SID162211070]				IC50 [3]: > 10 µM; IC50 [4]: > 10 µM
CC(C)(C)c1ccc(C(=O)Nc2cc(Cl)c(-c3ccc(C(=O)O)cc3)cc2C(=O)O)cc1 [SID162211072]				IC50 [3]: 3.5 µM; IC50 [4]: > 10 µM
CC(C)(C)c1ccc(C(=O)Nc2cc(Cl)c(-c3ccc(OC(F)(F)F)cc3)cc2C(=O)O)cc1 [SID162211074]				IC50 [3]: > 10 µM; IC50 [4]: > 10 µM
CC(C)(C)c1ccc(C(=O)Nc2cc(Cl)c(-c3cccc([N+](=O)[O-])c3)cc2C(=O)O)cc1 [SID162211082]				IC50 [3]: > 10 µM; IC50 [4]: > 10 µM
NC(N)=Nc1ccc(-c2ccc(-c3ccc(N=C(N)N)cc3Cl)o2)c(Cl)c1 [compound 1, 2-[3-chloro-4-[5-[2-chloro-4-(diaminomethylideneamino)phenyl]furan-2-yl]phenyl]guanidine]	2.9 ± 1.13	> 10		IC50 [5, 9]: 2.02 ± 0.31 µM; IC50 [6]: 0.78 ± 0.17 µM
NC(N)=Nc1ccc(-c2ccc(-c3ccc(N=C(N)N)c(Cl)c3)o2)cc1Cl [compound 2, 2-[2-chloro-4-[5-[3-chloro-4-(diaminomethylideneamino)phenyl]furan-2-yl]phenyl]guanidine]	1.3 ± 0.43	2.58 ± 0.53		IC50 [5, 9]: 0.7 ± 0.09 µM; IC50 [6]: 0.16 ± 0.06 µM
O=c1c2ccccc2[se]n1-c1ccccc1 [compound 3, 2-phenyl-1,2-benzisoselenazol-3(2H)-one]			0.88 ± 0.06	
O=c1c2ccccc2sn1-c1ccccc1 [compound 4, Ebsulfur]			> 10	
CC(C)(C)c1ccc(C(=O)Nc2cc(Cl)c(C3CC3)cc2C(=O)O)cc1 [compound 6, SID162211071]	6.7 ± 0.38	> 10	> 10	
CC(C)(C)c1ccc(C(=O)Nc2cc(Cl)c(-c3cccnc3)cc2C(=O)O)cc1 [compound 7, SID162211077]	> 10	> 10	> 10	
CC(C)(C)c1ccc(C(=O)Nc2cc(Cl)c(-c3ccccc3)cc2C(=O)O)cc1 [compound 8, SID144241590]	0.28	> 10	> 10	IC50 [6]: > 10 µM
CC(C)(C)c1ccc(C(=O)Nc2cc(Cl)c(-c3cccc(F)c3)cc2C(=O)O)cc1 [compound 9, SID162211078]	> 10	> 10	> 10	
CC(C)(C)c1ccc(C(=O)Nc2cc(Cl)c(-c3ccccc3F)cc2C(=O)O)cc1 [compound 10, SID162211083]	6.7 ± 1	> 10	> 10	
CC(C)(C)c1ccc(C(=O)Nc2cc(Cl)c(-c3cccc(Cl)c3)cc2C(=O)O)cc1 [compound 11, SID162211084]	> 10	> 10	6.5 ± 0.61	
CC(C)(C)c1ccc(C(=O)Nc2cc(Cl)c(-c3ccc(F)c(Cl)c3)cc2C(=O)O)cc1 [compound 12, SID162211073]	> 10	> 10	5.9 ± 0.26	
CC(C)(C)c1ccc(C(=O)Nc2cc(Cl)c(-c3ccc(Cl)c(Cl)c3)cc2C(=O)O)cc1 [compound 13, SID162211080]	> 10	> 10	2.9 ± 0.32	
COc1cccc(-c2cc(C(=O)O)c(NC(=O)c3ccc(C(C)(C)C)cc3)cc2Cl)c1 [compound 14, SID162211075]	3.9 ± 0.65		> 10	
COc1ccccc1-c1cc(C(=O)O)c(NC(=O)c2ccc(C(C)(C)C)cc2)cc1Cl [compound 15, SID162211076]	9.3 ± 0.55	> 10	> 10	
CC(C)(C)c1ccc(C(=O)Nc2cc(Cl)c(-c3ccc(O)cc3)cc2C(=O)O)cc1 [compound 16, SID162211079]	3.1 ± 0.17	> 10	> 10	
CC(C)(C)c1ccc(C(=O)Nc2cc(Cl)c(-c3ccccc3O)cc2C(=O)O)cc1 [compound 17, SID162211085]	1.2 ± 0.1	> 10	> 10	
Cc1ccccc1-c1cc(C(=O)O)c(NC(=O)c2ccc(C(C)(C)C)cc2)cc1Cl [compound 18, SID162211086]	> 10	> 10	> 10	
N[C@H]1C(O)O[C@H](CO)[C@@H](O)[C@@H]1O (stereo partly shown) [glucosamine]				Ki ([1]; competitive inhibitor of glucose): 186 ± 20.6 µM
OC[C@H]1OC(O)[C@H](O)[C@@H](O)[C@@H]1O (stereo partly shown) [glucose]				Km ([2]; co-substrate ATP): 42.5 ± 7.3 µM

Reference: publication doi:10.1101/469072v1 (biorxiv, 2018)
